Assay results as given in patent publication US20050222267A1, “Solution based methacholine formulations” (priority 2004, published 2005).
Like-named read-outs stand apart in the source and are kept apart here.

Key:
[1] = cited from earlier work
[2] = cited from earlier work; remark: listed apart in the source
[3] = Terminal steam sterilisation (Example 3): recovery (product potency); assay type: physicochemical; conditions: 20 L batches at 16 mg/ml and 0.25 mg/ml without buffer; conventional terminal steam sterilisation
Experimental: The influence of terminal steam sterilisation on the chemical properties of the methacholine drug product was determined, specifically in terms of the influence of heat on the product potency and impurity levels within the formulations.
[…] A formulation having a relatively high concentration of methacholine was used so that any changes in chemical properties were readily apparent.
The procedure described below was used for performing the high pressure liquid chromatography (HPLC) assay analysis of methacholine chloride in solution.

stability to terminal steam sterilisation [3]: did not withstand the high temperatures
SMILES: CC(=O)OC(C)C[N+](C)(C)C (centres unmarked) [methacholine, methacholine chloride]
decomposition by hydrolysis ([1]; pH of the solution above 6): rapidly decompose
time stable in solution ([1]; solutions of >0.3 mg/ml, stored at 4° C.): at least five
pH of the saline solution ([2]; methacholine 0.39 mg/ml in saline): 3.9
pH of the saline solution ([2]; methacholine 50 mg/ml in saline): 2.7
